Laboratory results reported in US11000033B2, “Ketone or oxime compound, and herbicide” (NISSAN CHEMICAL CORPORATION, priority 2014, dated 2021).

Legend:
Type in all cases: in vivo
[1] = tested on: Galium spurium; experiment: Test Example 4: herbicidal effect by soil treatment (symbol Q); settings: 320 g/ha
Summary of the method: (§1)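 Seeds were sown in sterilized diluvial soil, covered with about 1.5 cm of soil, and the soil surface was sprayed with a water-diluted emulsion of the compound at a predetermined rate. Plants grew in a greenhouse at 25° C. to 30° C.; effects were scored visually 3 weeks after application.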

[2] = tested on: Avena fatua; experiment: Test Example 4: herbicidal effect by soil treatment (symbol I); settings: 320 g/ha
Summary of the method: as §1

[3] = tested on: transplanted rice plant; experiment: Test Example 1: effect on crop, application before weed generation in submerged conditions (symbol a); settings: application herbicide amount 320 g/ha
Summary of the method: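 Alluvial soil pots flooded to 4 cm water, sown with Echinochloa oryzacola, Scirpus juncoides and Monochoria vaginalis, then transplanted with 2.5 leaf stage rice seedlings; pre-emergence application. Greenhouse 25° C. to 30° C.; scored 0–5 by herbicidal ratio 3 weeks after application.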

[4] = tested on: Digitaria ciliaris; experiment: Test Example 5: herbicidal effect by foliage application, plastic box (symbol F); settings: 320 g/ha, 3 weeks after application
Summary of the method: (§2)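 Visual herbicidal score, taken three weeks post-application, of seedlings sprayed on the foliage with water-diluted emulsion at a predetermined amount; plants were 14 days old, greenhouse-raised at 25° C. to 30° C.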

[5] = tested on: Setaria viridis; experiment: Test Example 5: herbicidal effect by foliage application, plastic box (symbol G); settings: 320 g/ha, 3 weeks after application
Summary of the method: as §2

[6] = tested on: Monochoria vaginalis; experiment: Test Example 2: herbicidal activity, application during weed generation in submerged conditions (symbol C); settings: Table 23; application herbicide amount 320 g/ha; grade 0-5 by criteria of Test Example 1
Summary of the method: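 Visual herbicidal ratings, taken three weeks after dosing, reflect post-emergence water-surface application to seedlings at one to two leaves. Conditions: co-sown weeds in alluvial soil flooded to 4 cm, greenhouse held at 25° C. to 30° C.; compound given as water-diluted emulsion at a fixed herbicide amount.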

[7] = tested on: Alopecurus myosuroides; experiment: Test Example 4: herbicidal effect by soil treatment (symbol J); settings: 320 g/ha
Summary of the method: as §1

[8] = tested on: rice; experiment: Test Example 4: effect on crop by soil treatment (symbol b); settings: 320 g/ha
Summary of the method: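 Grown at 25° C. to 30° C. in a greenhouse, the crops came from seed sown spot-wise in sterilized diluvial soil under roughly 1.5 cm of covering soil.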

[9] = tested on: Chenopodium album; experiment: Test Example 4: herbicidal effect by soil treatment (symbol O); settings: 320 g/ha
Summary of the method: as §1

[10] = tested on: Leptochloa chinensis; experiment: Test Example 3: herbicidal effect by foliage application, Wagner pot (symbol D); settings: application herbicide amount 320 g/ha
Summary of the method: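 Herbicidal activity was rated three weeks after a foliar spray of diluted emulsion concentrate, applied at a predetermined dose to plants grown for 14 days from seed in waterlogged alluvial soil within a 25–30 °C greenhouse.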

[11] = tested on: beet; experiment: Test Example 5: effect on crop by foliage application, plastic box (symbol f); settings: 320 g/ha, 3 weeks after application
Summary of the method: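 Soil: sterilized diluvial. Container: plastic box, 21 × 13 cm, 7 cm deep. Sowing: spot-like, ~1.5 cm cover. Growth: greenhouse, 25° C. to 30° C.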

| Structure (SMILES) | Q: Galium spurium, herbicidal effect grade [1] | I: Avena fatua, herbicidal effect grade [2] | Effect grade on crop, a: transplanted rice plant [3] | F: Digitaria ciliaris, herbicidal effect (criteria 0-5) [4] | G: Setaria viridis, herbicidal effect (criteria 0-5) [5] | Herbicidal effect grade, C: Monochoria vaginalis [6] | J: Alopecurus myosuroides, herbicidal effect grade [7] | b: directly sowed rice plant, effect grade on crop [8] | O: Chenopodium album, herbicidal effect grade [9] | herbicidal effect on D (Leptochloa chinensis), grade 0-5 [10] | f: beet, effect on crop (criteria 0-5) [11] | F: Digitaria ciliaris, herbicidal effect grade [4] | G: Setaria viridis, herbicidal effect grade [5] | f: beet, effect on crop grade [11] |
| --- | --- | --- | --- | --- | --- | --- | --- | --- | --- | --- | --- | --- | --- | --- |
| CON=C(C)CC1CC(OC(=O)N2CCCCC2)=C(c2c(C)cc(C)cc2C)C1=O (stereo not drawn) [1-151] | 0 (Herbicidal ratio of 5% or lower (almost no effect)) | 3 (Herbicidal ratio of 40% or higher and lower than 70%) | 4 (Herbicidal ratio of 70% or higher and lower than 90%) | 5 (Herbicidal ratio of 90% or more (almost completely withered)) | 5 (Herbicidal ratio of 90% or more (almost completely withered)) | 2 (Herbicidal ratio of 20% or higher and lower than 40%) | 5 (Herbicidal ratio of 90% or more (almost completely withered)) | 1 (Herbicidal ratio of 5% or higher and lower than 20%) | 0 (Herbicidal ratio of 5% or lower (almost no effect)) | 4 (Herbicidal ratio of 70% or higher and lower than 90%) | 2 (Herbicidal ratio of 20% or higher and lower than 40%) |  |  |  |
| CON=C(C)CC1CC(OC(=O)N2CCN(C)CC2)=C(c2c(C)cc(C)cc2C)C1=O (stereo not drawn) [1-152] | 0 (Herbicidal ratio of 5% or lower (almost no effect)) | 0 (Herbicidal ratio of 5% or lower (almost no effect)) | 2 (Herbicidal ratio of 20% or higher and lower than 40%) | 5 (Herbicidal ratio of 90% or more (almost completely withered)) | 5 (Herbicidal ratio of 90% or more (almost completely withered)) | 0 (Herbicidal ratio of 5% or lower (almost no effect)) | 3 (Herbicidal ratio of 40% or higher and lower than 70%) | 0 (Herbicidal ratio of 5% or lower (almost no effect)) | 0 (Herbicidal ratio of 5% or lower (almost no effect)) | 5 (Herbicidal ratio of 90% or more (almost completely withered)) | 0 (Herbicidal ratio of 5% or lower (almost no effect)) |  |  |  |
| C=CCN(CC=C)C(=O)OC1=C(c2c(C)cc(C)cc2C)C(=O)C(CC(C)=NOC)C1 (stereo not drawn) [1-153] | 0 (Herbicidal ratio of 5% or lower (almost no effect)) | 0 (Herbicidal ratio of 5% or lower (almost no effect)) | 4 (Herbicidal ratio of 70% or higher and lower than 90%) | 5 (Herbicidal ratio of 90% or more (almost completely withered)) | 5 (Herbicidal ratio of 90% or more (almost completely withered)) | 0 (Herbicidal ratio of 5% or lower (almost no effect)) | 3 (Herbicidal ratio of 40% or higher and lower than 70%) | 1 (Herbicidal ratio of 5% or higher and lower than 20%) | 0 (Herbicidal ratio of 5% or lower (almost no effect)) | 5 (Herbicidal ratio of 90% or more (almost completely withered)) | 0 (Herbicidal ratio of 5% or lower (almost no effect)) |  |  |  |
| CON=C(C)CC1CC(OC(=O)c2ccccc2C(F)(F)F)=C(c2c(C)cc(C)cc2C)C1=O (stereo not drawn) [1-154] | 0 (Herbicidal ratio of 5% or lower (almost no effect)) | 0 (Herbicidal ratio of 5% or lower (almost no effect)) | 5 (Herbicidal ratio of 90% or more (almost completely withered)) | 5 (Herbicidal ratio of 90% or more (almost completely withered)) | 5 (Herbicidal ratio of 90% or more (almost completely withered)) | 4 (Herbicidal ratio of 70% or higher and lower than 90%) | 5 (Herbicidal ratio of 90% or more (almost completely withered)) | 5 (Herbicidal ratio of 90% or more (almost completely withered)) | 0 (Herbicidal ratio of 5% or lower (almost no effect)) | 5 (Herbicidal ratio of 90% or more (almost completely withered)) | 1 (Herbicidal ratio of 5% or higher and lower than 20%) |  |  |  |
| CON=C(C)CC1CC(OC(=O)c2ccccc2OC(F)(F)F)=C(c2c(C)cc(C)cc2C)C1=O (stereo not drawn) [1-155] | 0 (Herbicidal ratio of 5% or lower (almost no effect)) | 4 (Herbicidal ratio of 70% or higher and lower than 90%) | 5 (Herbicidal ratio of 90% or more (almost completely withered)) | 5 (Herbicidal ratio of 90% or more (almost completely withered)) | 5 (Herbicidal ratio of 90% or more (almost completely withered)) | 3 (Herbicidal ratio of 40% or higher and lower than 70%) | 5 (Herbicidal ratio of 90% or more (almost completely withered)) | 5 (Herbicidal ratio of 90% or more (almost completely withered)) | 0 (Herbicidal ratio of 5% or lower (almost no effect)) | 5 (Herbicidal ratio of 90% or more (almost completely withered)) | 2 (Herbicidal ratio of 20% or higher and lower than 40%) |  |  |  |
| CON=C(C)CC1CC(OC(=O)N(C)c2ccccc2)=C(c2c(C)cc(C)cc2C)C1=O (stereo not drawn) [1-159] | 0 (Herbicidal ratio of 5% or lower (almost no effect)) | 0 (Herbicidal ratio of 5% or lower (almost no effect)) | 1 (Herbicidal ratio of 5% or higher and lower than 20%) |  |  | 3 (Herbicidal ratio of 40% or higher and lower than 70%) | 4 (Herbicidal ratio of 70% or higher and lower than 90%) | 3 (Herbicidal ratio of 40% or higher and lower than 70%) | 0 (Herbicidal ratio of 5% or lower (almost no effect)) | 5 (Herbicidal ratio of 90% or more (almost completely withered)) |  | 5 (Herbicidal ratio of 90% or more (almost completely withered)) | 1 (Herbicidal ratio of 5% or higher and lower than 20%) | 2 (Herbicidal ratio of 20% or higher and lower than 40%) |
